This note sets out measurements from patent publication US20250042861A1, “TETRAHYDROPYRIDAZINES, COMPOSITIONS COMPRISING THEM AND USES THEREOF” (Novo Nordisk A/S, priority 2021, published 2025).

The target of assay [1] is T1, human CB1 receptor (Homo sapiens, UniProt P21554).
T1 construct: expressed in transfected cells; host or cells: HEK293
Description: bioSensAll GAPL-Gi2 BRET biosensor assay in transfected HEK293 cells, inhibition of CP-55,940 response. Format: cell-based. The conditions noted are these: HEK293 cells transfected with hCB1 and GAPL-Gi2 biosensor, test compound then EC75 of CP-55,940 (0.1 nM), overnight incubation, read-out: CB1 wt Gi2 EC50. The procedure:
(§1) Using polyethylenimine (PEI) transfection agent, HEK293 cells were transfected in suspension with the human CB1 or CB1 b receptor and one of the following bioSensAll® assays: GAPL-Gi2, or β-arrestin plasma membrane (PM) translocation biosensor (+GRK2). Cells were directly seeded in 96-well plates immediately following transfection.
(§2) Cells were incubated with coelenterazine (luciferase substrate) and different test compounds prior to the measurement of BRET signals.
(§3) Used in this project are i) Ga plasma membrane (GAPL) biosensors and the ii) β-arrestin plasma membrane translocation biosensor. • i) GAPL sensors are used to monitor the activation of heterotrimeric G proteins at the plasma membrane upon receptor stimulation. Specifically, these multimolecular BRET sensors detect the plasma membrane recruitment of proteins that interact with active Ga subunits in a G protein family-selective manner. G protein activation following receptor stimulation generally leads to an increase in the BRET signal. • ii) The multimolecular β-arrestin membrane recruitment biosensors allow for real-time spatio-temporal monitoring of β-arrestin 1 and β-arrestin 2 following GPCR activation. Specifically, these β-arrestin sensors were designed to detect the recruitment of proteins to the plasma membrane β-arrestin PM) with localization to compartment resulting in an increased BRET signal. c) Cell Culture Conditions HEK293 cells were maintained in Dulbecco's Modified Eagle Medium (DMEM) (Wisent; cat #319-030-CL: without sodium pyruvate, with 4.5 g/L glucose, without L-glutamine) supplemented with 1% penicillin-streptomycin (Wisent; cat #450-201-EL) and 2 or 10% fetal bovine serum (Wisent cat #090150).
(§4) HEK293 cells were co-transfected with hCB1 or hCB1b and one of the above-listed bioSensAll® assays. For each transfection condition: • the total amount of transfected DNA was kept constant at 1 μg per mL of cell culture to be transfected; whenever necessary, salmon sperm DNA (Invitrogen, cat #15632011) was used as ‘carrier’ DNA to supplement plasmid DNA (i.e., biosensor and receptor); • the PEI (polyethylenimine 25 kDa linear, PolyScience, cat #23966) to DNA ratio (ug:ug) was fixed at 3:1. Transfections were Carried Out as Follows: • DNA and PEI were first diluted separately in 150 mM NaCl. The volume of the diluent in each tube corresponds to 5% of the cell culture volume to be transfected. • Once DNA and PEI were diluted, the PEI-containing solution was added to the DNA solution and the DNA/PEI mixture immediately vortexed for 5 seconds. • The DNA/PEI mixture was incubated for at least 20 minutes at room temperature to allow for the formation of DNA/PEI complexes. • During the incubation, HEK293 cells were detached, counted and re-suspended in culture medium (composition specified above). • At the end of the incubation period, the DNA/PEI mixture was added to the cells. • Cells were finally distributed in 96-well plates (White Opaque 96-well/Microplates, Greiner, cat #655083 or CulturPlate-96, White Opaque 96-well Microplate, PerkinElmer, cat #6005688) at a density of 30 000 cells per well.
(§5) • Using 450-Select TS Biotek plate washer, culture medium was aspirated and replaced with 100 μl of Hank's Balanced Salt Solution buffer (HBSS) (Wisent, cat #319-067CL: without red phenol; with sodium bicarbonate, with calcium and magnesium, with HEPES) per well. This process was performed a total of two times (i.e., 2 washes). • After the washing step, the HP D300 digital dispenser (Tecan) was used to inject increasing doses (12) of test compounds (ranging from 0-600 nM) to wells. […]

Assay [2] addresses T1, human CB1 receptor. The assay can be described thus: bioSensAll β-arrestin plasma membrane (PM) translocation BRET biosensor (+GRK2) assay in transfected HEK293 cells, inhibition of CP-55,940 response. Format: cell-based. The conditions noted are these: HEK293 cells transfected with hCB1 and β-arrestin PM translocation biosensor (+GRK2), test compound then EC75 of CP-55,940 (100 nM), overnight incubation, read-out: CB1 wt βarr2 EC50. The method, then: as §1, §2, §3, §4, §5

T1 sequence (P21554 whole entry): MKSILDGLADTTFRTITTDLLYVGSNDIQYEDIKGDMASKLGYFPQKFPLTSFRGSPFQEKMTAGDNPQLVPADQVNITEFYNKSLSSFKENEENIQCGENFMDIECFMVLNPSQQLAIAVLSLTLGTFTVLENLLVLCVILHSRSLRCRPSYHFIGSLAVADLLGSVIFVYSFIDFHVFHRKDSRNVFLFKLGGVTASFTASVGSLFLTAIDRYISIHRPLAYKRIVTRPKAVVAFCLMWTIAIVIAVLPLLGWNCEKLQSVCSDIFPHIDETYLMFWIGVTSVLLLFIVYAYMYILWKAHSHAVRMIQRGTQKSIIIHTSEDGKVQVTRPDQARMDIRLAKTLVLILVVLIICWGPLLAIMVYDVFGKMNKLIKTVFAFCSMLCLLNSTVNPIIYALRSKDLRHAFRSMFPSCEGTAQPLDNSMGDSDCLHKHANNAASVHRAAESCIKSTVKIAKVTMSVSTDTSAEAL

Broadly, the EC50 is the concentration giving half of the maximal effect. Regarding `CC(=O)N/C(N)=N/C(=N/S(=O)(=O)N1CCC(F)(F)CC1)N1CCC(c2ccccc2)C(c2ccc(Cl)cc2)=N1` (single isomer, unassigned) [Compound 4 Isomer 1, N-[(E)-N′-[(Z)-C-[6-(4-chlorophenyl)-5-phenyl-4,5-dihydro-3H-pyridazin-2-yl]-N-[(4,4-difluoro-1-piperidyl)sulfonyl]carbonimidoyl]carbamimidoyl]acetamide], the EC50 at human CB1 receptor [1] and at human CB1 receptor [2] was more than 30 µM throughout.
